The target in one test is T1, Torpedo AChR (Tetronarce californica, UniProt P02710+P02714+P02718).
T1 construct: purified Torpedo AChR preparation; from tissue; host or cells: Torpedo electric organ (inferred, the usual source of purified Torpedo receptor)
Briefly: Enzyme immunoassay of F8-D5 binding to Torpedo AChR and its inhibition. The protocol:
(§1) Wells of polystyrene plates (Corning) were then coated with 150 microliters of either 400 ng/ml purified rabbit anti-BisQ (1) in 0.1 M NaHCO3, pH 9.3, or […] purified Torpedo receptor in the same buffer. Coating was accomplished by incubating for 2 h at 37° C. After two washings with 0.01 M phosphate buffer:0.14 M NaCl, pH 7.2, containing 0.05% v/v Tween-20 (PBS-Tween), the wells were exposed to the various concentrations of F8-D5 in PBS-Tween. After incubation at 37° C. for 2h, the wells were washed three times with PBS-Tween and then filled with 200 microliters of 1:1,000 dilution in PBS-Tween of goat anti-mouse immunoglobulin labeled with horseradish -peroxidase (Sigma). After incubation at 37° C. for 1 h, the wells were washed three times with PBS-Tween. Peroxidase was assayed by incubation with o-phenylenediamine dihydrochloride (7 mg in 10 ml 0.1 M citrate-phosphate buffer, pH 4.8, containing 5 microliters of 30% H2 O2) for 10 min. The reaction was stopped with 50 microliters per well of 4 M H2 SO4 and the color read at 492 nm in a Multiskan Titertek apparatus. Values were corrected for a PBS blank which was never higher than 0.150. (The above conditions were not chosen for optimal sensitivity but for speed and convenience.)
(§2) To confirm that the same monoclonal antibody bound receptor and anti-BisQ, reciprocal inhibition experiments were carried. […]

The next test concerns the target rabbit anti-BisQ. Briefly: Enzyme immunoassay of F8-D5 binding to rabbit anti-BisQ and its inhibition. The settings on record: read-out: concentration giving 50% inhibition of binding of F8-D5 to rabbit anti-BisQ; stated as a similar concentration. On the procedure: as §1, §2
The next test deals with anti-steroid antibodies. In words: Competitive inhibition of binding of [3H]TA to rabbit anti-steroid antibodies (serum, affinity purified, Fab fragments). The protocol:
After incubating for 11/2 hrs at room temperature add 1 ml cold 5% charcoal/dextran (dil 1:40 with 0.1% gelatin in PBS). Let stand at 4° C. for 10 mins.

Test [1] addresses anti-steroid Fab fragments. In words: Scatchard analysis of tritiated steroid binding to Fab fragments of affinity purified anti-steroid antibodies. On the set-up: species or system rabbit. The following applies: tritiated ligand, read-out: Kd for Fab fragments of the anti-steroid from Scatchard plots. The protocol:
FIG. 5. Scatchard plot of the binding of [^3 H]triamcinolone acetonide to Fab fragments of affinity purified anti-steroid antibodies. Fab fragments (0.227 micrograms) were incubated with increasing concentrations of [^3 H]triamcinolone acetonide (0.4-62.5 nM) in the presence of 0.01M phosphate buffered saline pH 7.4 containing 0.1% gelatin in a total volume of 200 microliters. Total and non-specific binding (50 micromolar triamcinolone acetonide) were determined for each of the [^3 H]triamcinolone acetonide levels and all points were in duplicate. After incubating 1 hr at room temperature, add 1 ml cold 5% charcoal/dextran (diluted 1:40 in 0.01M PBS containing 0.1% gelatin) and let stand on ice for 10 min. Centrifuge down the charcoal/dextran, decant the supernatant into scintillation vials and determine the radioactivity.

The target in test [2] is T2, partially purified glucocorticoid receptor (Rattus norvegicus, UniProt P06536).
T2 sequence (P06536 1-795): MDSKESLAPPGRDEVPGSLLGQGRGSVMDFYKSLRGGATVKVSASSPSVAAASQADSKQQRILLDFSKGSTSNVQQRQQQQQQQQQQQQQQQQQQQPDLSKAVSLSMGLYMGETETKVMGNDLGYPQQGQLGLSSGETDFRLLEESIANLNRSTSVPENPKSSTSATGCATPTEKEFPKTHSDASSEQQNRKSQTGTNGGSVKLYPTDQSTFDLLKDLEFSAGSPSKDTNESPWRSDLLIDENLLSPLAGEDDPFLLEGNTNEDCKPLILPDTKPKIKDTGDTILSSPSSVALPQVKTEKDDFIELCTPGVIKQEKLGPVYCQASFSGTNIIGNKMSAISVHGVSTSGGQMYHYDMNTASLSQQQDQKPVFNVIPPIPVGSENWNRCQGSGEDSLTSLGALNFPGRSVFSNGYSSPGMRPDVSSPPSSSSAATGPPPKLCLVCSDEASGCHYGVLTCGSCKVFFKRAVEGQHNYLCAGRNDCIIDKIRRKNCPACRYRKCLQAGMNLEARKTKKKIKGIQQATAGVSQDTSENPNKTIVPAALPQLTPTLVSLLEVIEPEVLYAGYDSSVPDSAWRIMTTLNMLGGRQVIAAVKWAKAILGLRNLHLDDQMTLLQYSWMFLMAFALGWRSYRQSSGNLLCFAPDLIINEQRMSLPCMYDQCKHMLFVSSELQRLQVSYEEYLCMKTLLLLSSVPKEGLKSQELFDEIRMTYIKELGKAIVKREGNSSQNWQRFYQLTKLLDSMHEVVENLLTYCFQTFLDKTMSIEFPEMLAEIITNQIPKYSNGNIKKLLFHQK
In words: ELISA of 8G11-C6 binding to partially purified glucocorticoid receptor and its inhibition. The settings on record: ELISA (FIG. 13). On the procedure:
FIG. 12. […] 200 microliters containing either 1.08 micrograms ( ) or 0.54 micrograms ( ) of a partially purified receptor preparation in 0.1 M NaHCO3 were added to the wells of the polystyrene plastic and incubated overnight at 4° C. […] See methods section for the methodology employed.
FIG. 13. […] 200 microliters containing 0.54 micrograms protein of a partially purified receptor preparation in 0.1 M NaHCO3 pH 9.3 was added to the wells of polystyrene plates. These were incubated for 2 hrs at 37° C. Washed 2× with PBS containing 0.02% Tween. […] See methods for the methodology employed. The inhibitors used were triamcinolone acetonide ( ), rabbit serum albumin ( ) and triamcinolone-RSA ( ).

The subject of test [3] is anti-steroid Fab fragments. In words: ELISA of 8G11-C6 binding to anti-steroid Fab fragments and its inhibition. On the set-up: species or system rabbit. The following applies: inhibitor pre-incubated (FIG. 9, 10). The protocol:
FIG. 9 and 10. […] Controls with no inhibitor were included. […] Blanks with only PBS were included as well. The inhibitors used in FIG. 9 were triamcinolone acetonide ( ), triamcinolone-RSA ( ) and rabbit serum albumin ( ).
FIG. 11. […] The method used was similar to that described in the experimental procedure. […] 200λ of the incubation mixture was then added to microtiter wells previously coated with 10 ng anti-steroid Fab fragments and incubated for 2 hrs at 37° C.
The presence of anti-idiotypic antibodies in the hybridoma culture medium were assayed by a double antibody sandwich ELISA. […] After washing twice with 0.01M phosphate buffer - 0.14M NaCl, pH 7.4, containing 0.05% Tween (PBS-tween), the culture medium from the hybridomas was added and incubated at 37° C. for 2 hrs. The wells were washed three times with PBS-tween and 200 microliters of 1:3,000 dilution in PBS-tween of goat anti-mouse IgM-IgG horseradish peroxidase (Tago) was added. After incubating 1 hr at 37° C., the wells were washed three times with PBS-tween and 200 microliters substrate (7 mg o-phenylenediamine dichloride in 10 ml 0.1 M citrate-phosphate buffer, pH 4.8 containing 5 microliters of 30% H2 O2) was added. Depending on the intensity of the color, the reaction was stopped after 5-10 min by the addition of 50 microliters 8N H2 SO4 and the OD determined (Titretek) at 492 nm.
In general terms: In an ELISA, binding on a coated surface is turned into a signal by an enzyme label.

Test [4] concerns the target T3, glucocorticoid receptor (Rattus norvegicus, UniProt P06536).
T3 sequence (P06536 1-795): T2 sequence (P06536 1-795)
Briefly: biochemical.
Experimental: (§3) Incubate in a total volume of 500 microliters, for 2 hrs at 4° C., 20 mM HEPES buffer containing 50 mM NaCl, 1 mM EDTA, 10% glycerol 0.1 mM DTT pH 7.6, 10 nM [^3 H]TA and 200 microliters rat liver cytosol. Add 250 microliters 5% charcoal/dextran suspension and after 10 min centrifuge and determine the radioactivity in 200 λ aliquot.
(§4) The results tabulated in table I below represents the amount of unlabeled steroid that can displace 50% binding of 1×10^-8 M [^3 H]TA. Binding in the absence of competing steroid was taken as 100%.
(§5) Table I: Competitive inhibition of binding of [^3 H] triamcinolone to
(§6) glucocorticoid receptor included 100 ml of rat liver cytosol. 10^-8 M
(§7) [^3 H]TA and increasing concentrations of steroid in a total volume o
(§8) 200 ml. After incubating for 2 hrs at 4° C., 100 5%
(§9) charcoal/dextran was added. Let stand for 5 mins at 4° C. Make up
(§10) to 1 ml with PBS and after 5 mins centrifuge down charcoal. Decant
(§11) supernatant into scintillation vials. Add 10 ml hydrofluor and count.

The target of test [5] is T3, glucocorticoid receptor. Briefly: Competitive inhibition of binding of [3H]triamcinolone acetonide to glucocorticoid receptor in rat liver cytosol. The following applies: apparent Kd of the glucocorticoid receptor, competitive binding with [3H]TA as tracer (FIG. 6, Table I).
Experimental: as §3, §4, §5, §6, §7, §8, §9, §10, §11
[6] abbreviates: affinity purified anti-steroid 1.3 micrograms, 1×10^-8 M [3H]TA, read-out: Affinity purified anti-steroid: amount of unlabeled steroid that can displace 50% binding of [3H]TA.
Setting [7] is: anti-steroid Fab fragments 0.18 micrograms, 1×10^-8 M [3H]TA, read-out: Rabbit serum 541 Fab fragments: amount of unlabeled steroid that can displace 50% binding of [3H]TA.
Setting [8] is: unprocessed rabbit serum 540 dil 1:1000, 1×10^-8 M [3H]TA, read-out: Rabbit Serum 540 Unprocessed: amount of unlabeled steroid that can displace 50% binding of [3H]TA.
The mark [9] stands for this setting: unprocessed rabbit serum 540 dil 1:1000, 1×10^-8 M [3H]TA.

Read-outs that look alike come from different tables or passages of the source.

T1 sequence (P02710 25-461): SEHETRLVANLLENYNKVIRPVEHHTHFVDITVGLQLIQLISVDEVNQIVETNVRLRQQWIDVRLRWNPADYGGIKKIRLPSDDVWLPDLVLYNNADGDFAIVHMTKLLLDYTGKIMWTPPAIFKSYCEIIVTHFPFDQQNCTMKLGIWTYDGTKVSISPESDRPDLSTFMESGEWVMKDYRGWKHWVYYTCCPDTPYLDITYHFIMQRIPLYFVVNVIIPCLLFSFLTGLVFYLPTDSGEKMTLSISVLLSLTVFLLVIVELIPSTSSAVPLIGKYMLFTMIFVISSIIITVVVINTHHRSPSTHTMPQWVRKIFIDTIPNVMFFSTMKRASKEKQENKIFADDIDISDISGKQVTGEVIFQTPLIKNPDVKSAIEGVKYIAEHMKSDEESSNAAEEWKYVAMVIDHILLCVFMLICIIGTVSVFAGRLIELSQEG
T1 sequence (P02712 25-493 partner): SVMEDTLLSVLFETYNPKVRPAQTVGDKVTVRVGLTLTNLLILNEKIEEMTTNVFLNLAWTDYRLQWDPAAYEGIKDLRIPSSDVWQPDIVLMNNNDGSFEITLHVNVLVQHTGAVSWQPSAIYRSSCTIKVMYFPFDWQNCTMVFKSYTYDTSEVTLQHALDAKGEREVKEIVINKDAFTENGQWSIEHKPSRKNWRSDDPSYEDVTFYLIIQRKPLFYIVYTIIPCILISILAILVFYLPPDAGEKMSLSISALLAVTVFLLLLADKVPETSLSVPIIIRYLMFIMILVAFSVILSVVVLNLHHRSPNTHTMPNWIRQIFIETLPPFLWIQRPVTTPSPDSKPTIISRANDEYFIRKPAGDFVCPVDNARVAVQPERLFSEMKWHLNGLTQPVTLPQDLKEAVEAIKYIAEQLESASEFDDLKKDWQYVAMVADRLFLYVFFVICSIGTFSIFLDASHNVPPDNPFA
T1 sequence (P02714 18-506): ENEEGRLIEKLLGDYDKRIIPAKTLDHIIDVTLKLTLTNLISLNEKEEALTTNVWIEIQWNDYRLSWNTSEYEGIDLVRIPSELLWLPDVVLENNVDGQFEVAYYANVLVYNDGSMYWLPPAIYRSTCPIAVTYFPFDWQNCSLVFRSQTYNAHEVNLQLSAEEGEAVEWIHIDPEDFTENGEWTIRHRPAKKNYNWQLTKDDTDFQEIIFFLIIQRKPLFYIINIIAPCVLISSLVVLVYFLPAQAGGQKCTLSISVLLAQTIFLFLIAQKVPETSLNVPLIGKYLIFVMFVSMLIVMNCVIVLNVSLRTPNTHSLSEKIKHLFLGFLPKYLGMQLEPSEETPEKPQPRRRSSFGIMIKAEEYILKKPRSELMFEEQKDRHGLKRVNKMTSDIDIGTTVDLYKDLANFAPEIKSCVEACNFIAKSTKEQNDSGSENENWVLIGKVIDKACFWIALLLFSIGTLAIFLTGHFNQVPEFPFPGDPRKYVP
T1 sequence (P02718 22-522): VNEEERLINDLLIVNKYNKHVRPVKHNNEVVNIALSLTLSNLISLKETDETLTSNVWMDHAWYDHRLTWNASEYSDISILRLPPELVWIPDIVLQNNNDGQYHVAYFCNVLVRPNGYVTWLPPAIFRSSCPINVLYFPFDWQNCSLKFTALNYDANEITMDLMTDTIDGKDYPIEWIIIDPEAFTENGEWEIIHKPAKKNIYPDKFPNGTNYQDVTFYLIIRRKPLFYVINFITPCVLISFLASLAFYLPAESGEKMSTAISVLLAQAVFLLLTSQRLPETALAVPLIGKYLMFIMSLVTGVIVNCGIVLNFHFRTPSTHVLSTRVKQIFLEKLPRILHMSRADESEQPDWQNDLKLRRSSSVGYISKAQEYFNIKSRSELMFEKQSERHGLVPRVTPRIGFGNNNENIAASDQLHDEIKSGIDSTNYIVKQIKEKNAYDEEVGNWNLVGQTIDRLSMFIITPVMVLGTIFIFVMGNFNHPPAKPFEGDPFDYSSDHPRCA

With `C[N+](C)(C)Cc1cccc(/N=N/c2cccc(C[N+](C)(C)C)c2)c1` [BisQ, trans-3,3'-bis(α-trimethylammonium)azotoluene], the IC50 was 40000 nM on Torpedo AChR and ~40000 nM on rabbit anti-BisQ.

On to `C[C@]12C[C@H](O)[C@H]3[C@@H](CCC4=CC(=O)CC[C@@]43C)[C@@H]1CC[C@@H]2C(=O)CO` [Corticosterone], for which the IC50 at anti-steroid antibodies (setting [6]) worked out at 100000 nM; at anti-steroid antibodies (setting [7]) it was 100000 nM; on anti-steroid antibodies (setting [8]), 6300 nM.

With `C[C@@H]1C[C@H]2[C@@H]3CCC4=CC(=O)C=C[C@]4(C)[C@@]3(F)[C@@H](O)C[C@]2(C)[C@@]1(O)C(=O)CO` [Dexamethasone], the IC50 on anti-steroid antibodies (setting [6]) was found to be 620 nM; on anti-steroid antibodies (setting [7]) it was 630 nM; at anti-steroid antibodies (setting [8]), 120 nM. The Kd in test [1] was 150 nM.

For the compound `C[C@]12CCC(=O)C[C@@H]1CC[C@@H]1[C@@H]2CC[C@]2(C)[C@@H](O)CC[C@@H]12` [Dihydrotestosterone], at anti-steroid antibodies (setting [9]), the “Rabbit Serum 540 Unprocessed: amount of unlabeled steroid that can displace 50% binding of [3H]TA” value was “no effect”.

In the case of `C[C@]12CCC(=O)C=C1CC[C@@H]1[C@@H]2[C@@H](O)C[C@@]2(C)[C@H]1CC[C@]2(O)C(=O)CO` [Hydrocortisone], the IC50 worked out at 100000 nM at anti-steroid antibodies (setting [6]), 100000 nM on anti-steroid antibodies (setting [7]) and 5000 nM at anti-steroid antibodies (setting [8]).

As for `CC(=O)[C@H]1CC[C@H]2[C@@H]3CCC4=CC(=O)CC[C@]4(C)[C@H]3CC[C@]12C` [Progesterone], the IC50 at anti-steroid antibodies (setting [6]), at anti-steroid antibodies (setting [7]) and at anti-steroid antibodies (setting [8]) was 100000 nM in each case.

In the case of `C[C@]12CC[C@H]3[C@@H](CCC4=CC(=O)CC[C@@]43C)[C@@H]1CC[C@@H]2O` [Testosterone], the “Affinity purified anti-steroid: amount of unlabeled steroid that can displace 50% binding of [3H]TA” value on anti-steroid antibodies (affinity purified anti-steroid 1.3 micrograms, 1×10^-8 M [3H]TA) is recorded as “not inhibited”. Further, the “Rabbit serum 541 Fab fragments: amount of unlabeled steroid that can displace 50% binding of [3H]TA” value at anti-steroid antibodies (anti-steroid Fab fragments 0.18 micrograms, 1×10^-8 M [3H]TA) is on record as “not inhibited”. Also, the “Rabbit Serum 540 Unprocessed: amount of unlabeled steroid that can displace 50% binding of [3H]TA” value on anti-steroid antibodies (setting [9]) was “not inhibited”. Besides, the “effect on the binding of 8G11-C6 to partially purified glucocorticoid receptor” value in test [2] is reported as “only a slight inhibitory effect”. Besides, the “effect on the binding of 8G11-C6 to anti-steroid Fab fragments” value (“effect … to anti-steroid Fab fragments” for short) in test [3] is listed as “slight activation of binding”.

As for `C[C@]12C=CC(=O)C=C1CC[C@H]1[C@@H]3C[C@@H](O)[C@](O)(C(=O)CO)[C@@]3(C)C[C@H](O)[C@@]12F` [Triamcinolone, 9-fluoro-11β, α16 , 17, 21-tetrahydroxypregna-1,4-diene-3, 20-dione], the IC50 was 5 nM at glucocorticoid receptor [4], 15 nM at anti-steroid antibodies (setting [6]), 15 nM at anti-steroid antibodies (setting [7]) and 3.2 nM at anti-steroid antibodies (setting [8]). For the same compound, the “effect … to anti-steroid Fab fragments” value in test [3] is “slight activation of binding”.

As for `C[C@]12CC[C@@H]3c4ccc(O)cc4CC[C@H]3[C@@H]1CC[C@@H]2O` [estradiol-17β], the “effect on the binding of 8G11-C6 to partially purified glucocorticoid receptor” value in test [2] was “no effect”. Further, the “effect … to anti-steroid Fab fragments” value in test [3] is “slight activation of binding”.

Take `CC1(C)O[C@@H]2C[C@H]3[C@@H]4CCC5=CC(=O)C=C[C@]5(C)[C@@]4(F)[C@@H](O)C[C@]3(C)[C@]2(C(=O)CO)O1` [triamcinolone acetonide]: the Kd on glucocorticoid receptor [4] came out at 15 nM; at anti-steroid antibodies (competitive binding with [3H]TA as tracer (FIG. 6, Table I), read-out: apparent Kd of the anti-steroid in unprocessed rabbit serum) it was 3.2 nM; at glucocorticoid receptor [5], 5 nM. In test [3], the “effect … to anti-steroid Fab fragments” value is listed as “did not affect”.

Take “rabbit serum albumin: carrier protein tested alone as inhibitor”: the “effect … to anti-steroid Fab fragments” value in test [3] is on record as “did not affect”.

The record behind these values is patent publication US5144010A, “Method of producing monoclonal auto-anti-idiotypic antibodies” (The Trustees of Columbia University in the City of New York, priority 1989, dated 1992).
